Patent US8470964B2, “Peptides derived from NCAM (FGLs)” (Enkam Pharmaceuticals A/S, priority 2007, dated 2013)

System: (25-35) β-amyloid peptide fragment induced cognitive deficits model in rats
Assay: (25-35) β-amyloid induced cognitive deficits, intranasal administration, SRT
Assay type: in vivo, rat
Settings: intranasal, 15 daily doses from day 7 to 21, test 24 hrs after the last administration
Source text: FIG. 9. Effects of intranasal administration of FGLs on the β-amyloid neurotoxicity induced deficit on performance in the Social Recognition Test. Rats received an intranasal administration of FGLs at the stated doses or vehicle daily at days 7 to 21 after i.c.v. administration of the (25-35) β-amyloid (A-β) fragment. 8-10 animals per group. Results are expressed as Means and SEM of Recognition Ratio and analyzed by one-sample t-test: **p<0.05.
In this study, the (25-35) β-amyloid peptide fragment induced cognitive deficits model in rats was used to investigate the dose-response (0.08, 0.32 or 1.28 mg/kg) effect of FGLs administered intranasally daily for 15 doses from day 7 to day 21 post β-amyloid peptide i.c.v. injection. The social memory performance was evaluated using the SRT, 22 days after the β-amyloid injection. A statistically significant impairment of short-term memory was observed as a consequence of the (25-35) β-amyloid neurotoxicity in the rats receiving the (25-35) β-amyloid fragment plus vehicle.

For “EVYVVAENQQGKSKA [FGL, reference compound]”, which “minimum effective dose, impaired short-term memory (SRT)” value is on record?
The value was 1.28 mg/kg.
